Data reported in ChEMBL document CHEMBL5260828, “Amphiphilic glycoconjugates as potential anti-cancer chemotherapeutics” (Eur J Med Chem, 2018).
In brackets after ≈: the same amount, converted by molar mass.

Tests used:
HT-29 [1] = experiment: Cytotoxicity against human HT-29 cells incubated upto 96 hrs by MTT assay; type: functional, cell-based; conditions: HT-29, 96 h
T84 = experiment: Cytotoxicity against human T84 cells incubated upto 96 hrs by MTT assay; type: functional, cell-based; conditions: T84, 96 h
Caco-2 = experiment: Cytotoxicity against human Caco-2 cells incubated upto 96 hrs by MTT assay; type: functional, cell-based; conditions: Caco-2, 96 h
[2] = Cytotoxicity against human OVXF 1619L cells assessed as inhibition of cell proliferation by propidium iodide assay; type: functional, cell-based
RXF 393 = experiment: Cytotoxicity against human RXF 393 cells assessed as inhibition of cell proliferation by propidium iodide assay; type: functional, cell-based
PANC-1 = experiment: Cytotoxicity against human PANC-1 cells assessed as inhibition of cell proliferation by propidium iodide assay; type: functional, cell-based
NCI-H460 [3] = experiment: Cytotoxicity against human NCI-H460 cells assessed as inhibition of cell proliferation by propidium iodide assay; type: functional, cell-based
RXF 944 = experiment: Cytotoxicity against human RXF 944 cells assessed as inhibition of cell proliferation by propidium iodide assay; type: functional, cell-based
OVCAR-3 = experiment: Cytotoxicity against human OVCAR-3 cells assessed as inhibition of cell proliferation by propidium iodide assay; type: functional, cell-based
LXF-289 cell line = experiment: Cytotoxicity against human LXF-289 cell line assessed as inhibition of cell proliferation by propidium iodide assay; type: functional, cell-based
MEXF276L = experiment: Cytotoxicity against human MEXF276L cells assessed as inhibition of cell proliferation by propidium iodide assay; type: functional, cell-based
[4] = Cytotoxicity against human OVXF 899L cells assessed as inhibition of cell proliferation by propidium iodide assay; type: functional, cell-based
[5] = Cytotoxicity against human MEXF 462NL cells assessed as inhibition of cell proliferation by propidium iodide assay; type: functional, cell-based
PC-3M = experiment: Cytotoxicity against human PC-3M cells assessed as inhibition of cell proliferation by propidium iodide assay; type: functional, cell-based
[6] = Cytotoxicity against human GXF 251L cells assessed as inhibition of cell proliferation by propidium iodide assay; type: functional, cell-based
HCT-116 [7] = experiment: Cytotoxicity against human HCT-116 cells assessed as inhibition of cell proliferation by propidium iodide assay; type: functional, cell-based
CWR22R = experiment: Cytotoxicity against human 22Rv1 cells assessed as inhibition of cell proliferation by propidium iodide assay; type: functional, cell-based
HT-29 [8] = experiment: Cytotoxicity against human HT-29 cells assessed as inhibition of cell proliferation by propidium iodide assay; type: functional, cell-based
[9] = tested on: Lung LXF 629L tumor cell line; experiment: Cytotoxicity against human Lung LXF 629L tumor cell line assessed as inhibition of cell proliferation by propidium iodide assay; type: functional, cell-based
MEXF514 = experiment: Cytotoxicity against human MEXF514 cells assessed as inhibition of cell proliferation by propidium iodide assay; type: functional, cell-based
LNCaP = experiment: Cytotoxicity against human LNCaP cells assessed as inhibition of cell proliferation by propidium iodide assay; type: functional, cell-based
DU-145 = experiment: Cytotoxicity against human DU-145 cells assessed as inhibition of cell proliferation by propidium iodide assay; type: functional, cell-based
MCF7 = experiment: Cytotoxicity against human MCF7 cells assessed as inhibition of cell proliferation by propidium iodide assay; type: functional, cell-based
T-24 = experiment: Cytotoxicity against human T24 cells assessed as inhibition of cell proliferation by propidium iodide assay; type: functional, cell-based
LXFL 529 = experiment: Cytotoxicity against human LXFL 529 cells assessed as inhibition of cell proliferation by propidium iodide assay; type: functional, cell-based
SF-268 = experiment: Cytotoxicity against human SF-268 cells assessed as inhibition of cell proliferation by propidium iodide assay; type: functional, cell-based
[10] = Cytotoxicity against human RXF 486L cells assessed as inhibition of cell proliferation by propidium iodide assay; type: functional, cell-based
MAXF401 cell line = experiment: Cytotoxicity against human MAXF401 cells assessed as inhibition of cell proliferation by propidium iodide assay; type: functional, cell-based
Colon 26 = experiment: Cytotoxicity against mouse Colon 26 cells incubated for 3 days by MTT assay; type: functional, cell-based; conditions: Colon 26, 72 h
L1210 = experiment: Cytotoxicity against mouse L1210 cells incubated for 3 days by MTT assay; type: functional, cell-based; conditions: L1210, 72 h
K562 = experiment: Cytotoxicity against human K562 cells by MTT assay; type: functional, cell-based
KB [11] = experiment: Cytotoxicity against human KB cells by MTT assay; type: functional, cell-based
HeLa = experiment: Cytotoxicity against human HeLa cells by MTT assay; type: functional, cell-based
KB [12] = experiment: Cytotoxicity against human KB cells incubated for 48 hrs by SRB colorimetric assay; type: functional, cell-based
[13] = Cytotoxicity against African green monkey Vero cells incubated for 48 hrs by SRB colorimetric assay; type: toxicity, cell-based, Chlorocebus sabaeus
NCI-H187 = experiment: Cytotoxicity against human NCI-H187 cells incubated for 48 hrs by SRB colorimetric assay; type: functional, cell-based; conditions: NCI-H187, 48 h
BC1 cell line = experiment: Cytotoxicity against human BC1 cell line incubated for 48 hrs by SRB colorimetric assay; type: functional, cell-based; conditions: BC1, 48 h
NUGC-3 = experiment: Growth inhibition of human NUGC-3 cells; type: functional
NCI-H23 = experiment: Growth inhibition of human NCI-H23 cells; type: functional
MRC5 = experiment: Cytotoxicity against human MRC5 cells; type: functional, cell-based
SW480 = experiment: Cytotoxicity against human SW480 cells; type: functional, cell-based
DLD-1 = experiment: Cytotoxicity against human DLD-1 cells; type: functional, cell-based
NCI-H460 [14] = experiment: Cytotoxicity against human NCI-H460 cells; type: functional, cell-based
SAOS-2 = experiment: Cytotoxicity against human SAOS-2 cells; type: functional, cell-based
HT-29 [15] = experiment: Cytotoxicity against human HT-29 cells; type: functional, cell-based
HFF = experiment: Cytotoxicity against human HFF cells; type: functional, cell-based
HL-60 = experiment: Cytotoxicity against human HL-60 cells assessed as inhibition of cell growth incubated for 22 hrs by MTS spectrophotometric assay; type: functional, cell-based; conditions: HL-60, 22 h
THP-1 = experiment: Cytotoxicity against human THP-1 cells assessed as inhibition of cell growth incubated for 22 hrs by MTS spectrophotometric assay; type: functional, cell-based; conditions: THP-1, 22 h
HCT-116 [16] = experiment: Cytotoxicity against human HCT-116 cells; type: functional, cell-based
HCT-116/VM46 = experiment: Cytotoxicity against human HCT-116/VM46 cells; type: functional, cell-based
A2780 = experiment: Cytotoxicity against human A2780 cells; type: functional, cell-based

Q: Which IC50 (HT-29 [1]) does the source give for `C=C(C)[C@H]1CC=C(CO)CC1` here?
A: The IC50 was 100 µM.

Q: And the IC50 (T84)?
A: Its IC50 is 158 µM.

Q: What about the IC50 (Caco-2) of the same molecule?
A: The IC50 was 78.5 µM.

Q: For `C/C=C(\C)[C@H](O[C@@H]1O[C@H](CO)[C@@H](O)[C@H](O)[C@H]1O)[C@H](C)/C=C(C)/C=C/C/C(C)=C/Cc1nc(OC)cc(O)c1C`, which IC50 [2] is on record?
A: Its IC50 is 2000 nM.

Q: What about the IC50 (RXF 393) of the same molecule?
A: The IC50 was 2000 nM.

Q: And the IC50 (PANC-1)?
A: Its IC50 is 2000 nM.

Q: What about the IC50 (NCI-H460 [3]) of the same molecule?
A: Its IC50 is 2000 nM.

Q: What about the IC50 (RXF 944) of the same molecule?
A: Its IC50 is 2000 nM.

Q: What about the IC50 (OVCAR-3) of the same molecule?
A: Its IC50 is 2000 nM.

Q: And the IC50 (LXF-289 cell line)?
A: The IC50 was 2000 nM.

Q: And the IC50 (MEXF276L)?
A: Its IC50 is 2000 nM.

Q: What about the IC50 [4] of the same molecule?
A: The IC50 was 2000 nM.

Q: And the IC50 [5]?
A: The IC50 was 2000 nM.

Q: What about the IC50 (PC-3M) of the same molecule?
A: The IC50 was 2000 nM.

Q: What about the IC50 [6] of the same molecule?
A: The IC50 was 2000 nM.

Q: What about the IC50 (HCT-116 [7]) of the same molecule?
A: Its IC50 is 2000 nM.

Q: What about the IC50 (CWR22R) of the same molecule?
A: Its IC50 is 2000 nM.

Q: What about the IC50 (HT-29 [8]) of the same molecule?
A: The IC50 was 2000 nM.

Q: And the IC50 [9]?
A: Its IC50 is 2000 nM.

Q: What about the IC50 (MEXF514) of the same molecule?
A: Its IC50 is 2000 nM.

Q: And the IC50 (LNCaP)?
A: The IC50 was 2000 nM.

Q: What about the IC50 (DU-145) of the same molecule?
A: Its IC50 is 2000 nM.

Q: And the IC50 (MCF7)?
A: The IC50 was 2000 nM.

Q: And the IC50 (T-24)?
A: Its IC50 is 2000 nM.

Q: What about the IC50 (LXFL 529) of the same molecule?
A: Its IC50 is 2000 nM.

Q: What about the IC50 (SF-268) of the same molecule?
A: The IC50 was 2000 nM.

Q: What about the IC50 [10] of the same molecule?
A: The IC50 was 2000 nM.

Q: What about the IC50 (MAXF401 cell line) of the same molecule?
A: Its IC50 is 2000 nM.

Q: For `C/C=C(\C)[C@H](O)[C@H](C)/C=C(C)/C=C/C/C(C)=C/Cc1nc(OC)c(OC)c(OC2O[C@H](C)[C@H](O)[C@H](O)[C@@H]2O)c1C` (stereo partly specified), which IC50 (Colon 26) is on record?
A: Its IC50 is 0.81 µg/mL (≈ 1.44 µM).

Q: What about the IC50 (L1210) of the same molecule?
A: The IC50 was 7.91 µg/mL (≈ 14.1 µM).

Q: Which results are given for `C/C=C(\C)[C@H](O)[C@H](C)/C=C(C)/C=C/C/C(C)=C/Cc1nc(OC)c(OC)c(OC2O[C@@H](C)[C@H](O)[C@@H](O)[C@H]2O)c1C` (stereo partly specified)?
A: IC50 (K562): 4.6 µg/mL (≈ 8.19 µM); IC50 (KB [11]): 3.8 µg/mL (≈ 6.76 µM); IC50 (HeLa): 2.8 µg/mL (≈ 4.98 µM)

Q: Which results are given for `CO[C@H]1[C@H](O)[C@@H](O)[C@H](O[C@H](C[C@@]2(C)[C@H](C)CCC(=O)[C@@H]2C)/C(C)=C/Cc2c(O)c(Cl)c(C)c(C=O)c2O)O[C@@H]1CO`?
A: IC50 (KB [12]): 19 µg/mL (≈ 31.7 µM); IC50 at 48 h [13]: 6.9 µg/mL (≈ 11.5 µM); IC50 (NCI-H187): 7.9 µg/mL (≈ 13.2 µM); IC50 (BC1 cell line): 8.4 µg/mL (≈ 14 µM)

Q: With `CC(C)[C@H](CCCCCCCCCCCCC(=O)NCC(=O)O)O[C@@H]1O[C@H](COC(=O)CCC(=O)O)[C@@H](O)[C@H](O)[C@H]1O` as the molecule, how does the GI50 (NUGC-3) read?
A: The GI50 was 17.8 µg/mL (≈ 29.4 µM).

Q: And the GI50 (NCI-H23)?
A: Its GI50 is 25.2 µg/mL (≈ 41.6 µM).

Q: With `C[C@@H](N)[C@H](O)CCCCCCCC(=O)CCCCCCCCCCCCCC[C@H](O)[C@H](N)CO[C@@H]1O[C@H](CO)[C@@H](O)[C@H](O)[C@H]1O` as the molecule, how does the IC50 (MRC5) read?
A: Its IC50 is 3 µg/mL (≈ 4.62 µM).

Q: And the IC50 (SW480)?
A: Its IC50 is 3 µg/mL (≈ 4.62 µM).

Q: And the IC50 (DLD-1)?
A: The IC50 was 3 µg/mL (≈ 4.62 µM).

Q: And the IC50 (NCI-H460 [14])?
A: Its IC50 is 3 µg/mL (≈ 4.62 µM).

Q: And the IC50 (SAOS-2)?
A: Its IC50 is 3 µg/mL (≈ 4.62 µM).

Q: What about the IC50 (HT-29 [15]) of the same molecule?
A: Its IC50 is 3 µg/mL (≈ 4.62 µM).

Q: What about the IC50 (HFF) of the same molecule?
A: Its IC50 is 3 µg/mL (≈ 4.62 µM).

Q: Which results are given for `C[C@@H](N)[C@H](O)CCCCCCCC(=O)CCCCCCCCCCCCCC[C@H](O[C@@H]1O[C@H](CO)[C@H](O)[C@H](O)[C@H]1O)[C@@H](C)N`?
A: IC50 (HL-60): 1700 nM; IC50 (THP-1): 1700 nM

Q: Which IC50 (HCT-116 [16]) does the source give for `CO[C@]12C=C[C@](C)(O1)[C@@H](OC(=O)/C=C/c1cn(C)cn1)C[C@H]1C(C)=CC[C@H](C(C)C)[C@H]1/C=C\2CO[C@@H]1OC[C@@H](O)[C@@H](O)[C@@H]1OC(C)=O` [ELEUTHEROBIN] here?
A: Its IC50 is 10 nM.

Q: And the IC50 (HCT-116/VM46)?
A: The IC50 was 10 nM.

Q: What about the IC50 (A2780) of the same molecule?
A: The IC50 was 10 nM.
